Laboratory results: ChEMBL document CHEMBL3612062, “Antitumor activity of endoperoxide-iron chelator conjugates-design, synthesis and biological evaluation” (Eur J Med Chem, 2015)

Columns and labels:
[1] = test system: HL-60; assay: Cytotoxicity against human HL60 cells after 48 hrs by MTT assay; assay type: functional, cell-based; details: HL-60, 48 h
[2] = test system: A549; assay: Cytotoxicity against human A549 cells after 48 hrs by MTT assay; assay type: functional, cell-based; details: A549, 48 h
[3] = test system: SW480; assay: Cytotoxicity against human SW480 cells after 48 hrs by MTT assay; assay type: functional, cell-based; details: SW480, 48 h
[4] = test system: SMMC-7721; assay: Cytotoxicity against human SMMC7721 cells after 48 hrs by MTT assay; assay type: functional, cell-based; details: SMMC-7721, 48 h
[5] = Cytotoxicity against human HL7702 cells after 48 hrs by MTT assay; assay type: cell-based; details: L02, 48 h
[6] = Selectivity ratio of IC50 for human HL7702 cells to IC50 for human SMMC7721 cells; assay type: ADME, cell-based, SMMC-7721; details: HL7702 cells versus SMMC7721 cells, read-out: Ratio IC50
[7] = test system: SMMC-7721; assay: Increase of cell survival in human SMMC7721 at 50 uM after 48 hrs by MTT assay in presence of deferoxamine; assay type: functional
[8] = test system: SMMC-7721; assay: Induction of apoptosis in human SMMC7721 cells at 10 uM after 24 hrs using annexin-V FITC and propidium iodide staining by flow cytometry analysis; assay type: functional
[9] = test system: SMMC-7721; assay: Induction of apoptosis in human SMMC7721 cells at 20 uM after 24 hrs using annexin-V FITC and propidium iodide staining by flow cytometry analysis; assay type: functional
[10] = Metal chelating activity of the compound assessed as formation of iron-compound complex at 100 uM using FeSO4 by UV-vis spectrometry; assay type: physicochemical
[11] = Metal chelating activity of the compound assessed as formation of iron-compound complex at 100 uM using FeCl3 by UV-vis spectrometry; assay type: physicochemical
[12] = Binding affinity to ferric oxide assessed as dissociation degree at 2:1 ligand to metal ratio by UV-visible spectrophotometry
[13] = test system: SMMC-7721; assay: Induction of apoptosis in human SMMC7721 cells after 24 hrs using annexin-V FITC and propidium iodide staining by flow cytometry analysis; assay type: functional, cell-based
[14] = Stability of the compound-ferric oxide complex; assay type: physicochemical
[15] = Binding affinity to ferric oxide assessed as dissociation degree at 1:1 ligand to metal ratio by UV-visible spectrophotometry
[16] = test system: SMMC-7721; assay: Cytotoxicity against human SMMC7721 cells assessed activity loss of cells at 5 uM after 48 hrs by MTT assay; assay type: functional

Row | SMILES | IC50 [1] | IC50 [2] | IC50 [3] | IC50 [4] | IC50 [5] | selectivity ratio [6] | Activity [7] | Activity [8] | Activity [9] | Activity [10] | Activity [11] | Activity [12] | Activity [13] | Stability [14] | Activity [15] | Activity [16]
1 | Oc1ccc(N[C@H]2CC[C@@]3(CC2)OC[C@]2(OO3)C3CC4CC(C3)CC2C4)c2cccnc12 (mixture of isomers) | 6.6 µM | 23.9 µM | > 50 µM | 11 µM | 36 µM | 3.28 | 15% |  |  |  |  |  |  |  |  | 
2 | Oc1ccc(N[C@H]2CC[C@]3(CC2)OO[C@]2(O3)C3CC4CC(C3)CC2C4)c2cccnc12 (mixture of isomers) | 8.1 µM | 15.9 µM | > 50 µM | 7.3 µM | 25.7 µM | 3.52 | 15% |  |  |  |  |  |  |  |  | 
3 | O=C(N[C@H]1CC[C@@]2(CC1)OC[C@]1(OO2)C2CC3CC(C2)CC1C3)c1ccc(O)c(O)c1 (mixture of isomers) | 34.8 µM | > 50 µM | > 50 µM | > 50 µM | > 50 µM |  | 10% |  |  |  |  |  |  |  |  | 
4 | O=C(O)C1CCC2(CC1)OOC1(OO2)C2CC3CC(C2)CC1C3 (centres undefined) | > 100 µM | > 100 µM | > 100 µM | > 100 µM | > 100 µM |  |  |  |  |  |  |  |  |  |  | 
5 | O=C1CCC2(CC1)OCC1(OO2)C2CC3CC(C2)CC1C3 (centres undefined) | > 100 µM | > 100 µM | > 100 µM | > 100 µM | > 100 µM |  |  |  |  |  |  |  |  |  |  | 
6 | O=C(O)c1ccc(O)c(O)c1 [PROTOCATECHUIC ACID] | > 50 µM | > 50 µM | > 50 µM | > 50 µM | > 50 µM |  |  |  |  |  |  |  |  |  |  | 
7 | Oc1ccc(NC2CCC3(CC2)OCC2(CO3)C3CC4CC(C3)CC2C4)c2cccnc12 (mixture of isomers) | 12.9 µM | 45.6 µM | > 50 µM | 20.3 µM | 41.9 µM | 2.06 |  |  |  |  |  |  |  |  |  | 
8 | O=C(N[C@H]1CC[C@]2(CC1)OC[C@]1(O2)C2CC3CC(C2)CC1C3)c1ccc(O)c(O)c1 (mixture of isomers) | 35.5 µM | > 50 µM | > 50 µM | > 50 µM | > 50 µM |  |  |  |  |  |  |  |  |  |  | 
9 | O=C(N[C@H]1CC[C@]2(CC1)OO[C@]1(O2)C2CC3CC(C2)CC1C3)c1ccc(O)c(O)c1 (mixture of isomers) | 31.2 µM | > 50 µM | > 50 µM | > 50 µM | > 50 µM |  | 10% |  |  |  |  |  |  |  |  | 
10 | Oc1ccc(NC2CCC3(CC2)OOC2(OO3)C3CC4CC(C3)CC2C4)c2cccnc12 (mixture of isomers) | 6 µM | 11.8 µM | > 50 µM | 7.5 µM | 27.7 µM | 3.71 | 15% | 12.2% | 33.2% | Active | Active | 18% | Dose-dependent effect | Stable |  | 
11 | O=C1CCC2(CC1)OOC1(O2)C2CC3CC(C2)CC1C3 (centres undefined) | > 100 µM | > 100 µM | > 100 µM | > 100 µM | > 100 µM |  |  |  |  |  |  |  |  |  |  | 
12 | O=C(NC1CCC2(CC1)OOC1(OO2)C2CC3CC(C2)CC1C3)c1ccc(O)c(O)c1 (centres undefined) | 25 µM | > 50 µM | > 50 µM | 33.8 µM | > 50 µM |  | 10% |  |  | Active | Active |  |  | Stable | 36% | 
13 | O=C1CCC2(CC1)OOC1(OO2)C2CC3CC(C2)CC1C3 | > 100 µM | > 100 µM | > 100 µM | > 100 µM | > 100 µM |  |  |  |  |  |  |  |  |  |  | 
14 | C[C@H]1[C@@H](O)O[C@@H]2O[C@@]3(C)CC[C@H]4[C@H](C)CC[C@@H]1[C@@]24OO3 [ARTENIMOL] | 18.7 µM | 30.1 µM | > 100 µM | 13.8 µM | 34.9 µM | 2.52 |  |  |  |  |  |  |  |  |  | 
15 | O=C(NO)C1CCC2(CC1)OOC1(OO2)C2CC3CC(C2)CC1C3 (centres undefined) | > 50 µM | > 50 µM | > 50 µM | > 50 µM | > 50 µM |  |  |  |  |  |  |  |  |  |  | 
16 | Oc1ccc(N[C@H]2CC[C@]3(CC2)OC[C@]2(O3)C3CC4CC(C3)CC2C4)c2cccnc12 (mixture of isomers) | 9.2 µM | 17.2 µM | > 50 µM | 12.6 µM | 30.1 µM | 2.39 |  |  |  |  |  |  |  |  |  | 
17 | O=C(O)[C@H]1CC[C@]2(CC1)OO[C@]1(O2)C2CC3CC(C2)CC1C3 | > 100 µM | > 100 µM | > 100 µM | > 100 µM | > 100 µM |  |  |  |  |  |  |  |  |  |  | 
18 | CC(=O)N(O)CCCCCNC(=O)CCC(=O)N(O)CCCCCNC(=O)CCC(=O)N(O)CCCCCN [DEFEROXAMINE] |  |  |  |  |  |  |  |  |  |  |  |  |  |  |  | 5%
19 | O=C(NO)[C@H]1CC[C@]2(CC1)OO[C@]1(O2)C2CC3CC(C2)CC1C3 (mixture of isomers) | > 50 µM | > 50 µM | > 50 µM | > 50 µM | > 50 µM |  |  |  |  |  |  |  |  |  |  | 
20 | Nc1ccc(O)c2ncccc12 | 13.8 µM | > 50 µM | > 50 µM | > 50 µM | > 50 µM |  |  |  |  |  |  |  |  |  |  | 
21 | O=C(O)[C@H]1CC[C@@]2(CC1)OC[C@]1(OO2)C2CC3CC(C2)CC1C3 | > 100 µM | > 100 µM | > 100 µM | > 100 µM | > 100 µM |  |  |  |  |  |  |  |  |  |  | 
22 | O=C(NC1CCC2(CC1)OCC1(CO2)C2CC3CC(C2)CC1C3)c1ccc(O)c(O)c1 (mixture of isomers) | 30.1 µM | > 50 µM | > 50 µM | > 50 µM | > 50 µM |  |  |  |  |  |  |  |  |  |  | 
23 | O=C(NO)[C@H]1CC[C@@]2(CC1)OC[C@]1(OO2)C2CC3CC(C2)CC1C3 (mixture of isomers) | > 50 µM | > 50 µM | > 50 µM | > 50 µM | > 50 µM |  |  |  |  |  |  |  |  |  |  | 
